Usually AUC(0-t) stands for the area under the concentration-time curve up to a stated or last time point. Read a low AUC(0-t) as less exposure. Usually Cmax stands for the highest concentration seen after dosing. As usually defined, the Tmax is the time at which the peak concentration occurs. What is called IC50 is the point on the concentration scale where inhibition reaches its midpoint. What is called t½ is the time in which the quantity being followed falls by half.

The nature of data set [1]: In vivo pharmacokinetics in plasma after oral gavage (PO) in male CD-1 mice. As to conditions: for bioavailability / AUC(0-t) / Cmax / Tmax / half-life: mouse; for half-life: read-out: t½ (converted). The method, then:
The purpose of this study is to determine the pharmacokinetics of the tested compounds in plasma, following oral gavage administration (PO) to male CD-1 mice.
Animal Husbandry: Animals were group housed during acclimation and the study. The animal room environment were controlled (target conditions: temperature 18 to 26° C., relative humidity 30 to 70%, 12 hours artificial light and 12 hours dark). Temperature and relative humidity were monitored daily. Animals were fasted at least 12 hours prior to the administration. All animals had access to Certified Rodent Diet ad libitum 4 hours post dosing.
Dose Formulation: prepared 85-100 uL of a stock solution of representative compounds of the disclosure in DMSO at 50 mM; 1.5% v/v of Tween 80 were added and mixed gently; 95.5% v/v saline was added gently to the organic phase. The solution was mixed slowly by reverse pipetting to get a clear solution.
Dose Administration: the dose formulations were administered via oral gavage per facility SOPs. The dose volume were determined by the animals' body weight collected on the morning of dosing day
Sample Collection: blood collection (about 0.05 mL per time point) was performed from saphenous vein of each animal into polypropylene tubes at each timepoints (0, 0.25, 0.5, 1, 2, 4, 8, 12, and 24 hr). All blood samples were transferred into pre-chilled tubes containing 2 μL of K2-EDTA (0.5M) and placed on wet ice until centrifugation. Each collected blood sample was in the wet-ice before centrifugation. Each collected blood was under centrifugation for 15 minutes at 4° C. and 3000 g for plasma collection. Plasma samples were stored in polypropylene tubes, quickly frozen over dry ice and kept at −70±10° C. until LC/MS/MS analysis.
Bioanalytical analysis: A LC-MS/MS method for the quantitative determination of tested compound in biological matrix were developed under non-GLP compliance. A calibration curve with at least 7 non-zero calibration standards were applied for the method including LLOQ.
Plasma concentration versus time data were analyzed by non-compartmental approaches using the Phoenix WinNonlin 6.3 software program. Cl, Vdss, C0, Cmax, Tmax, T^1/2, AUC(0-t), AUC(0-inf), MRT(0-t), MRT(0-inf), % F (oral availability) and graphs of plasma concentration versus time profile were reported.

The target in data set [2] is T1, LBD of estrogen receptor-α (ERα) fused to DBD of GAL4 (Homo sapiens, UniProt P03372).
T1 sequence (P03372 311-547 limits assumed): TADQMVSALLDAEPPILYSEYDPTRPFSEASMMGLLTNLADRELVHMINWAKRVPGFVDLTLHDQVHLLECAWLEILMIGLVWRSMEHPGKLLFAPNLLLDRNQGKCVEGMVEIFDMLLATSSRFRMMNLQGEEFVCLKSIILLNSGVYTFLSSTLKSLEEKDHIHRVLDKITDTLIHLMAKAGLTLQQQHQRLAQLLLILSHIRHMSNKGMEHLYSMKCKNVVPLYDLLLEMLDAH
Put plainly: LBD-expressing reporter assay (GeneBLAzer), ERα LBD. Format: cell-based. As to conditions: inhibition of maximal activity attained with agonist; read-out: Steroid Receptor LBD IC50 (μM) ERα. From the text:
(§1) This assay uses cells that stably express a chimera fusion protein comprising the LBD of a steroid hormone receptor fused to the DNA-binding domain (DBD) of GAL4 along with beta-lactamase reporter under transcriptional control of an upstream activator sequence (UAS). When agonist binds to the LBD of the GAL4 (DBD)-steroid hormone (LBD) chimera fusion protein, the protein binds to the UAS, resulting in expression of beta-lactamase. LBDs of androgen receptor (AR), progesterone receptor-beta (PRβ), glucocorticoid receptor (GR), estrogen receptor-α (ERα), and estrogen receptor-β (ERβ) were tested and IC50s calculated for inhibiting maximal activity attained with agonist.

In data set [3] the target is LBD of estrogen receptor-β (ERβ) fused to DBD of GAL4 (Homo sapiens, UniProt Q92731). Put plainly: LBD-expressing reporter assay (GeneBLAzer), ERβ LBD. The class given is cell-based. To be noted: inhibition of maximal activity attained with agonist; read-out: Steroid Receptor LBD IC50 (μM) ERβ.
Chain of LBD of estrogen receptor-β (ERβ) fused to DBD of GAL4 (Q92731 264-498 limits assumed): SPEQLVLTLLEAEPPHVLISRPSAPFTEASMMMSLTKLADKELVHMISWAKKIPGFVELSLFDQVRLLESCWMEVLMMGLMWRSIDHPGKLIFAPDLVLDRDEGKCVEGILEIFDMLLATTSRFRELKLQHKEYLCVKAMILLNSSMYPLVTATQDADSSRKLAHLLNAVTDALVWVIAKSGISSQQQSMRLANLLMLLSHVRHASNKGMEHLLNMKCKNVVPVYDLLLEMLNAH
Description: as §1, with “To assess if the representative compounds (Compounds A13, A28, A38, A74, A93, and A109) compete with ligand (agonist) for the ligand-binding domain (LBD) of steroid hormone receptors (which would be off-target), the GeneBLAzer assay was employed (Thermo Fisher). This” for “This”
For orientation: Reporter assays use an easily measured gene product as a stand-in for the process of interest.

In data set [4] the target is T2, LBD of progesterone receptor-beta (PRβ) fused to DBD of GAL4 (Homo sapiens, UniProt P06401).
T2 sequence (P06401 679-913 limits assumed): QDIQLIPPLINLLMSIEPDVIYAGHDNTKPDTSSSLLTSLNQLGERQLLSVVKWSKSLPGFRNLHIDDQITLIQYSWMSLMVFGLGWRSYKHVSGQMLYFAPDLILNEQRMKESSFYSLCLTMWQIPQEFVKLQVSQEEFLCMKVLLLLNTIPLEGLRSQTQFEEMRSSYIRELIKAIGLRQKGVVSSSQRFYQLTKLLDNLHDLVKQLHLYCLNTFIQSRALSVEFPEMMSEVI
Put plainly: LBD-expressing reporter assay (GeneBLAzer), PR LBD. Format: cell-based. To be noted: inhibition of maximal activity attained with agonist; read-out: Steroid Receptor LBD IC50 (μM) PR.
Description: as §1

Data set [5] concerns the target T3, LBD of androgen receptor (AR) fused to DBD of GAL4 (Homo sapiens, UniProt P10275).
T3 sequence (P10275 669-900 limits assumed): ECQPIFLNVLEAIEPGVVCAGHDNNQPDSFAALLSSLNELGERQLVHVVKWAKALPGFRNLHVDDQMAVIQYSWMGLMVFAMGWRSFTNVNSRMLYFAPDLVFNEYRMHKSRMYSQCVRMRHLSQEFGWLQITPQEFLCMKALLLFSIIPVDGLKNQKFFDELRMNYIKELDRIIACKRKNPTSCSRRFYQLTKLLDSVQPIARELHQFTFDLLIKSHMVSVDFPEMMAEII
In words: LBD-expressing reporter assay (GeneBLAzer), AR LBD. The class given is cell-based. To be noted: inhibition of maximal activity attained with agonist; read-out: Steroid Receptor LBD IC50 (μM) AR.
Description: as §1

Setting [6] is: plasma, single PO dose 5 mg/kg, male CD-1 mice, oral availability.
Where [7] appears, read: single PO dose 5 mg/kg, male CD-1 mice, plasma.

With `Cc1cnc(NS(C)(=O)=O)nc1COc1ccc(C(C)(C)c2cc(Cl)c(OCCCl)c(C#N)c2)cc1` [Compound A122, N-(4-((4-(2-(3-Chloro-4-(2-chloroethoxy)-5-cyanophenyl)propan-2-yl)phenoxy)methyl)-5-methylpyrimidin-2-yl)methanesulfonamide], the bioavailability in data set [1] (setting [6]) turned out to be 92.4%. Also, in data set [1] (setting [7]), the AUC(0-t) is 6800 ng·h/mL, the highest level (Cmax) was 4080 ng/mL, the time to peak (Tmax) came out at 0.5 h and the half-life is 1.1 h. The “AUC/D” value in data set [1] (setting [7]) turned out to be 1360.0 kg·ng·h/mL/mg.
On to `CC(C)(c1ccc(OCc2ocnc2S(C)(=O)=O)cc1)c1cc(Cl)c(OCCCl)c(C#N)c1` [Compound A28, 3-chloro-2-(2-chloroethoxy)-5-(2-(4-((4-(methylsulfonyl)oxazol-5-yl)methoxy)phenyl)propan-2-yl)benzonitrile], for which, in data set [2], the concentration for half-maximal inhibition (IC50) was above 10 µM. The bioavailability in data set [1] (setting [6]) was 50.3%. Further, in data set [1] (setting [7]), the AUC(0-t) is 8430 ng·h/mL, the Cmax was found to be 2010 ng/mL, the time of peak concentration (Tmax) amounted to 0.5 h and the half-life is 2.8 h. Moreover, in data set [1] (setting [7]), the “AUC/D” value came to 1685.1 kg·ng·h/mL/mg. Moreover, in data set [3], the IC50 was above 10 µM. For the same compound, the IC50 in data set [4] was 0.93 µM. In addition, in data set [5], the 50% inhibitory concentration (IC50) was above 10 µM.
Consider `CC(C)(c1ccc(OCc2coc(NS(C)(=O)=O)n2)cc1)c1cc(Cl)c(OCCCl)c(Cl)c1` [Compound A38, N-(4-((4-(2-(3,5-dichloro-4-(2-chloroethoxy)phenyl)propan-2-yl)phenoxy)methyl)oxazol-2-yl)methanesulfonamide], for which the 50% inhibitory concentration (IC50) in data set [2] was above 10 µM. Besides, the bioavailability in data set [1] (setting [6]) worked out at 86.4%. For the same compound, in data set [1] (setting [7]), the AUC(0-t) was 12800 ng·h/mL, the Cmax is 1270 ng/mL, the Tmax was 3.3 h and the half-life was 4.9 h. In data set [1] (setting [7]), the “AUC/D” value stood at 2561.0 kg·ng·h/mL/mg. Moreover, the IC50 in data set [3] is above 10 µM. The IC50 in data set [4] turned out to be 5.07 µM. Further, in data set [5], the IC50 was above 10 µM.
`CC(C)(c1ccc(OCc2nc(S(C)(=O)=O)cs2)cc1)c1cc(Cl)c(OCCCl)c(C#N)c1` [Compound A136, 3-Chloro-2-(2-chloroethoxy)-5-(2-(4-((4-(methylsulfonyl)thiazol-2-yl)methoxy)phenyl)propan-2-yl)benzonitrile]: in data set [1] (setting [6]), the bioavailability amounted to 14%. Also, in data set [1] (setting [7]), the AUC(0-t) came out at 42000 ng·h/mL, the peak concentration (Cmax) turned out to be 3430 ng/mL, the time of peak concentration (Tmax) stood at 1.5 h and the half-life was 10.2 h. Moreover, the “AUC/D” value in data set [1] (setting [7]) worked out at 8407.6 kg·ng·h/mL/mg.
Consider `C[C@H](Oc1ccc(C(C)(C)c2cc(Cl)c(OCCCl)c(C#N)c2)cc1)c1ccnc(NS(C)(=O)=O)n1` (single isomer, unassigned) [Compound A170], for which the bioavailability in data set [1] (setting [6]) was 150%. In data set [1] (setting [7]), the AUC(0-t) is 80000 ng·h/mL, the highest concentration (Cmax) amounted to 8500 ng/mL, the Tmax turned out to be 3 h and the half-life was 3 h. Further, in data set [1] (setting [7]), the “AUC/D” value was 16007.6 kg·ng·h/mL/mg.
In the case of `CC(C)(c1ccc(OCc2ccnc(NS(C)(=O)=O)n2)cc1)c1cc(Cl)c(OCCCl)c(Cl)c1` [Compound A74, N-(4-((4-(2-(3,5-dichloro-4-(2-chloroethoxy)phenyl)propan-2-yl)phenoxy)methyl)pyrimidin-2-yl)methanesulfonamide], the IC50 in data set [2] is above 10 µM. In addition, the “Cmin at 5 mg/kg PO” value in data set [1] (5 mg/kg PO, Table 4) came to 2420 nM. Further, in data set [1] (setting [7]), the area under the curve AUC(0-t) stood at 72700 ng·h/mL, the peak level (Cmax) was 6310 ng/mL, the time to peak (Tmax) was found to be 2.7 h and the “AUC/D” value is 14542.3 kg·ng·h/mL/mg. For the same compound, the “t½” value in data set [1] (setting [7]) worked out at 12.5 h. Besides, the “F (%)” value in data set [1] (single PO dose 5 mg/kg, male CD-1 mice, oral availability) stood at 71.9%. Moreover, the IC50 in data set [3] is above 10 µM. Also, in data set [4], the half-inhibitory concentration (IC50) amounted to 5.41 µM. Further, in data set [5], the IC50 was above 10 µM.
In the case of `CCS(=O)(=O)Nc1nccc(COc2ccc(C(C)(C)c3cc(Cl)c(OCCCl)c(C#N)c3)cc2)n1` [Compound A131], the bioavailability in data set [1] (setting [6]) was determined as 81%. Besides, in data set [1] (setting [7]), the AUC(0-t) is 76000 ng·h/mL, the highest concentration (Cmax) was found to be 7050 ng/mL, the Tmax came to 1.3 h and the half-life is 5 h. Besides, the “AUC/D” value in data set [1] (setting [7]) was determined as 15209.4 kg·ng·h/mL/mg.
Turning to `CC(C)(c1ccc(OCc2ncc(S(C)(=O)=O)s2)cc1)c1cc(Cl)c(OCCCl)c(C#N)c1` [Compound A93, 3-chloro-2-(2-chloroethoxy)-5-(2-(4-((5-(methylsulfonyl)thiazol-2-yl)methoxy)phenyl)propan-2-yl)benzonitrile], in data set [2], the half-inhibitory concentration (IC50) was above 10 µM. Moreover, the bioavailability in data set [1] (setting [6]) turned out to be 62.8%. Further, in data set [1] (setting [7]), the AUC(0-t) stood at 32900 ng·h/mL, the peak concentration (Cmax) is 2970 ng/mL, the Tmax was found to be 0.8 h and the half-life is 17.1 h. Further, the “AUC/D” value in data set [1] (setting [7]) is 6575.7 kg·ng·h/mL/mg. The IC50 in data set [3] was above 10 µM. Moreover, the IC50 in data set [4] came out at 5.04 µM. Further, the IC50 in data set [5] is above 10 µM.
On to `CC(C)(c1ccc(OC[C@H](O)CNS(C)(=O)=O)cc1)c1cc(Cl)c(OC[C@H](O)CCl)c(Cl)c1` [X, reference compound], for which the IC50 in data set [2] is 5.82 µM; in data set [3], 7.37 µM; in data set [4], 4.96 µM; in data set [5], 9.83 µM.
`CCS(=O)(=O)Nc1nc(COc2ccc(C(C)(C)c3cc(Cl)c(OCCCl)c(C#N)c3)cc2)co1` [Compound A126]: the bioavailability in data set [1] (setting [6]) was determined as 86%. Further, in data set [1] (setting [7]), the AUC(0-t) came out at 24500 ng·h/mL, the peak level (Cmax) was 3110 ng/mL, the Tmax is 1.3 h and the half-life is 4.7 h. Further, the “AUC/D” value in data set [1] (setting [7]) amounted to 4909.4 kg·ng·h/mL/mg.

Values taken from US11059795B2, “Androgen receptor modulators and methods for their use” (ESSA Pharma, Inc., priority 2018, dated 2021).
